Measurements published in PubChem BioAssay (NCI).
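Test compounds were applied to cells in 96-well plates for 48 hours at 5 doses. TGI marks complete inhibition of growth.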

How the values were obtained:
Experiment in all cases: inhibition of tumour cell growth, NCI panel, 48 h
HT29 colon = test system: HT29 colon
MOLT-4 leukemia = test system: MOLT-4 leukemia
OVCAR-4 ovarian = test system: OVCAR-4 ovarian
HCT-116 colon = test system: HCT-116 colon
EKVX NSCLC = test system: EKVX NSCLC
MDA-MB-435 = test system: MDA-MB-435
NCI/ADR-RES ovarian = test system: NCI/ADR-RES ovarian
A498 renal = test system: A498 renal
NCI-H23 lung = test system: NCI-H23 lung
K-562 leukemia = test system: K-562 leukemia
MCF7 breast = test system: MCF7 breast
SNB-75 CNS = test system: SNB-75 CNS
SNB-19 CNS = test system: SNB-19 CNS
DU-145 prostate = test system: DU-145 prostate
LOX IMVI melanoma = test system: LOX IMVI melanoma
SF-539 CNS = test system: SF-539 CNS
NCI-H522 lung = test system: NCI-H522 lung
RXF 393 renal = test system: RXF 393 renal
KM12 colon = test system: KM12 colon
MDA-N = test system: MDA-N

| Compound | TGI (HT29 colon) | TGI (MOLT-4 leukemia) | TGI (OVCAR-4 ovarian) | TGI (HCT-116 colon) | TGI (EKVX NSCLC) | TGI (MDA-MB-435) | TGI (NCI/ADR-RES ovarian) | TGI (A498 renal) | TGI (NCI-H23 lung) | TGI (K-562 leukemia) | TGI (MCF7 breast) | TGI (SNB-75 CNS) | TGI (SNB-19 CNS) | TGI (DU-145 prostate) | TGI (LOX IMVI melanoma) | TGI (SF-539 CNS) | TGI (NCI-H522 lung) | TGI (RXF 393 renal) | TGI (KM12 colon) | TGI (MDA-N) |
| --- | --- | --- | --- | --- | --- | --- | --- | --- | --- | --- | --- | --- | --- | --- | --- | --- | --- | --- | --- | --- |
| COc1ccc(C2Oc3c(cccc3-c3c(-c4ccc(O)cc4)oc4cc(O)cc(O)c4c3=O)C(=O)C2O)cc1O (centres undefined) | > 100 µM | > 100 µM | > 100 µM | > 100 µM | > 100 µM | > 100 µM | > 100 µM | > 100 µM | > 100 µM | > 100 µM | > 100 µM | > 100 µM | > 100 µM | > 100 µM | – | – | – | – | – | – |
| COc1ccc(NC(=O)c2oc3cc(O)ccc3c(=O)c2C)c([N+](=O)[O-])c1 | > 100 µM | > 100 µM | > 100 µM | > 100 µM | > 100 µM | – | – | > 100 µM | > 100 µM | > 100 µM | – | > 100 µM | > 100 µM | – | > 100 µM | > 100 µM | > 100 µM | > 100 µM | > 100 µM | – |
| CCCCCCc1cc2cc(-c3cn4c(n3)sc3ccccc34)c(=O)oc2cc1O | > 100 µM | > 100 µM | > 100 µM | > 100 µM | > 100 µM | > 100 µM | > 100 µM | – | > 100 µM | > 100 µM | > 100 µM | > 100 µM | > 100 µM | > 100 µM | > 100 µM | > 100 µM | > 100 µM | > 100 µM | > 100 µM | – |
| CCCCCCCCCCCCCCCCCCOCC(C[N+]1(C)CCC(O)CC1)OCC (centres undefined) | 14.9 µM | 10.6 µM | 18 µM | 27.6 µM | 46.3 µM | – | – | 54.9 µM | 16 µM | 19.1 µM | – | 19.2 µM | 28.3 µM | – | – | 32.8 µM | 31 µM | – | – | – |
| CCOC(=O)C1=C(O)C(=O)c2ccoc2C1=O | > 100 µM | > 100 µM | > 100 µM | > 100 µM | > 100 µM | – | – | > 100 µM | > 100 µM | > 100 µM | – | > 100 µM | > 100 µM | – | > 100 µM | > 100 µM | > 100 µM | > 100 µM | > 100 µM | – |
| Cc1ccc(C2[C@H]3C(=O)N(c4ccc(Cc5ccc(N6C(=O)[C@@H]7ON(c8ccccc8)C(c8ccc(C)cc8)[C@@H]7C6=O)cc5)cc4)C(=O)[C@H]3ON2c2ccccc2)cc1 (some centres undefined) | > 100 µM | > 100 µM | > 100 µM | – | – | – | – | > 100 µM | > 100 µM | > 100 µM | – | > 100 µM | – | – | > 100 µM | > 100 µM | – | > 100 µM | > 100 µM | – |
| C=C1CCC2[C@](C)(CCC[C@]2(C)C(=O)O)[C@@H]1CCc1ccoc1 (some centres undefined) | 55.7 µM | > 100 µM | > 100 µM | 88.4 µM | > 100 µM | > 100 µM | 98.2 µM | > 100 µM | 50.7 µM | > 100 µM | – | > 100 µM | > 100 µM | > 100 µM | 38 µM | 99.4 µM | > 100 µM | > 100 µM | 74.9 µM | > 100 µM |
| CN(C(=S)Cc1ccc(Cl)c(Cl)c1)C1CCCC[C@@H]1N1CCCC1 (some centres undefined) | 45.5 µM | > 100 µM | > 100 µM | > 100 µM | > 100 µM | 87.5 µM | > 100 µM | 60.6 µM | > 100 µM | > 100 µM | – | – | > 100 µM | > 100 µM | – | > 100 µM | – | – | > 100 µM | 36.2 µM |
| O=C1NC2C3CC(OCc4ccccc4)(OCc4ccccc4)C2OC3O1 (centres undefined) | > 50 µM | > 50 µM | – | > 50 µM | – | – | – | > 50 µM | > 50 µM | > 50 µM | – | > 50 µM | – | – | > 50 µM | > 50 µM | – | – | > 50 µM | – |
| Clc1ccc(C(Cc2ccccc2)c2c(Cl)nc(N3CCNCC3)nc2Cl)cc1 (centres undefined) | 6.27 µM | 15.9 µM | 43 µM | 20.5 µM | 32.2 µM | 32 µM | 35 µM | 24.8 µM | 36.8 µM | 17.8 µM | 20 µM | 27.2 µM | 28.6 µM | 27.6 µM | 10.6 µM | 28.8 µM | 25.9 µM | – | 20.7 µM | – |
| O=C1C[C@@H]2[C@@H](c3ccccc3)[C@@H]3C(=O)c4ccccc4NC(=O)[C@H]3[C@]2(O)c2ccccc2N1 | > 100 µM | > 100 µM | > 100 µM | > 100 µM | > 100 µM | – | – | – | > 100 µM | > 100 µM | – | > 100 µM | > 100 µM | – | > 100 µM | – | > 100 µM | > 100 µM | > 100 µM | – |
| COc1ccc(/C=N/N=C(\N)NO)cc1F | 38.3 µM | > 100 µM | > 100 µM | > 100 µM | > 100 µM | – | – | – | 81 µM | 56.4 µM | – | 89.5 µM | > 100 µM | – | 48.7 µM | 60.1 µM | 87.1 µM | 73.2 µM | > 100 µM | – |
